Consider 4 compounds from ChEMBL document CHEMBL1201862, “PubChem BioAssay data set” (2004).

Test systems include A549; COLO 205; HL-60; HT-29; LOX IMVI; MCF7; MDA-MB-435; Malme-3M; NCI-H460; OVCAR-5; PC-3; RPMI-8226; SF-268; SF-539; SK-MEL-28; SK-MEL-2; SR; SW-620; TK-10; UACC-62.
Experiment in all cases: inhibition of tumour cell growth, NCI panel, 48 h

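Step 1: Grow cells in 96-well plates. Step 2: Expose to compound for 48 hours at 5 concentrations. Step 3: Interpolate endpoints linearly; if unreached, use highest concentration. GI50 is the concentration that inhibits growth by half.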 Calls of active or inactive are those of the source. Rule as the data show it: active = GI50 up to about 1.1 µM and inactive = higher.

Turning to `CC(C)(C)c1ccc(S(=O)(=O)N2C(c3cccc(C4CC[C@@H](C(=O)O)N4S(=O)(=O)c4ccc(C(C)(C)C)cc4)c3)CC[C@H]2C(=O)O)cc1` (stereo not given in full), the GI50 in the assay on A549 is 66.7 µM (inactive); with COLO 205, 34 µM (inactive); in the assay with HL-60 it was 43.5 µM (inactive); in the assay on HT-29, 47.8 µM (inactive); with LOX IMVI, 79.4 µM (inactive); in the assay on MCF7 it was 44 µM (inactive). The GI50 is 54.7 µM (inactive) with MDA-MB-435; 87.1 µM (inactive) in the assay with Malme-3M; 47.9 µM (inactive) with NCI-H460; > 100 µM (inactive) with OVCAR-5; 32.7 µM (inactive) in the assay on PC-3; 34.5 µM (inactive) in the assay on RPMI-8226. For the same compound, the GI50 in the assay on SF-268 was 77.8 µM (inactive); in the assay with SF-539 it was 87.3 µM (inactive); with SK-MEL-28 it was > 100 µM (inactive); with SK-MEL-2, 30.1 µM (inactive); in the assay on SR it was 33.1 µM (inactive); in the assay on SW-620, 69.3 µM (inactive). Moreover, the GI50 with TK-10 is 65.5 µM (inactive); with UACC-62 it was 44.9 µM (inactive).

As for `COc1cc(O)c2c(=O)c(OC)c(-c3ccc(OC)c(O)c3)oc2c1` [AYANIN], the GI50 in the assay on A549 was 76.6 µM (inactive); in the assay with COLO 205, 76.9 µM (inactive); with HL-60, > 100 µM (inactive); in the assay on HT-29, 79.1 µM (inactive); in the assay on LOX IMVI, 20.7 µM (inactive); in the assay with MCF7, 15.5 µM (inactive). Moreover, the GI50 in the assay with MDA-MB-435 was 34.7 µM (inactive); in the assay on Malme-3M it was 24 µM (inactive); in the assay on NCI-H460 it was 14 µM (inactive); in the assay with OVCAR-5, 37.4 µM (inactive); in the assay with PC-3 it was 30.8 µM (inactive); in the assay with RPMI-8226, 33.1 µM (inactive). In addition, the GI50 in the assay on SF-268 was 33.2 µM (inactive); in the assay with SF-539, 18.4 µM (inactive); in the assay with SK-MEL-28, > 100 µM (inactive); in the assay on SK-MEL-2 it was > 100 µM (inactive); in the assay with SR it was 22.1 µM (inactive); in the assay with SW-620 it was > 100 µM (inactive). Further, the GI50 in the assay with TK-10 is 17.6 µM (inactive); with UACC-62 it was 23.5 µM (inactive).

Consider `C(=N\c1cnc2ccccc2c1)/c1ccc2ccccc2n1`, for which the GI50 in the assay on A549 is > 100 µM (inactive); with COLO 205 it was > 100 µM (inactive); in the assay with HL-60, 53.3 µM (inactive); with HT-29, > 100 µM (inactive); with LOX IMVI it was 72.9 µM (inactive); in the assay on MCF7, 43 µM (inactive). For the same compound, the GI50 was > 100 µM (inactive) in the assay on MDA-MB-435; > 100 µM (inactive) with Malme-3M; > 100 µM (inactive) in the assay on NCI-H460; > 100 µM (inactive) in the assay with OVCAR-5; > 100 µM (inactive) with PC-3; 29.2 µM (inactive) with RPMI-8226. Moreover, the GI50 in the assay on SF-268 is > 100 µM (inactive); with SF-539, > 100 µM (inactive); with SK-MEL-28, > 100 µM (inactive); in the assay with SK-MEL-2, > 100 µM (inactive); in the assay with SR it was 24 µM (inactive); in the assay on SW-620, 64.1 µM (inactive). Besides, the GI50 in the assay with TK-10 and with UACC-62 was > 100 µM (inactive) in each case.

Take `COc1ccc(-c2cc(-c3ccccc3)nc(N)n2)c(O)c1`: the GI50 is 12.8 µM (inactive) with A549; > 100 µM (inactive) in the assay with COLO 205; 2.02 µM (inactive) in the assay with HL-60; > 26.9 µM (inactive) in the assay on HT-29; 6.78 µM (inactive) in the assay with LOX IMVI; 0.984 µM (active) with MCF7. The GI50 in the assay on MDA-MB-435 is 3.56 µM (inactive); in the assay on Malme-3M, > 100 µM (inactive); in the assay with NCI-H460, 5.04 µM (inactive); in the assay with OVCAR-5 it was > 100 µM (inactive); in the assay with PC-3, 6.68 µM (inactive); with RPMI-8226, 2.31 µM (inactive). For the same compound, the GI50 with SF-268 is 17.8 µM (inactive); in the assay with SF-539, > 100 µM (inactive); in the assay on SK-MEL-28, > 83.4 µM (inactive); in the assay with SK-MEL-2, 7.08 µM (inactive); in the assay on SR, 4.3 µM (inactive); in the assay with SW-620 it was 5.32 µM (inactive). In addition, the GI50 with TK-10 is > 100 µM (inactive); in the assay with UACC-62 it was > 28.9 µM (inactive).
